The values below are quoted from earlier work in article PMC9897045 (ACS Omega, 2023).

pEC50: −log10 of the molar value. Like-named read-outs stand apart in the source and are kept apart here.

The subject of series [1] is main protease (Mpro, 3CLpro, nsp5). Conditions: read-out: EC50 against main protease (Mpro).
Series [2] concerns SARS-CoV-2.

`Cn1cnc(Cn2c(=O)[nH]/c(=N\c3cc4cn(C)nc4cc3Cl)n(Cc3cc(F)c(F)cc3F)c2=O)n1` [S-217622, (6E)-6-[(6-chloro-2-methyl-2H-indazol-5-yl)imino]-3-[(1-methyl-1H-1,2,4-triazol-3-yl)methyl]-1-(2,4,5-trifluorobenzyl)-1,3,5-triazinane-2,4-dione]: the pEC50 in series [1] is 7.89; in series [2] (read-out: EC50 against SARS-CoV-2, range over strains, CPE EC50), 6.30 to 6.54; in series [2] (read-out: EC50 against SARS-CoV-2 Alpha strain, strain QK002), 6.48; in series [2] (read-out: EC50 against SARS-CoV-2 Beta strain, strain TY8-612) it was 6.40; in series [2] (read-out: EC50 against SARS-CoV-2 Delta strain, strain TY11-927-P1) it was 6.39; in series [2] (read-out: EC50 against SARS-CoV-2 Gamma strain, strain TY7-501), 6.30. Further, in series [2] (read-out: EC50 against SARS-CoV-2 Omicron strain, strain TY38-873), the pEC50 is 6.54.
